# In patent US20230085307A1, “PYRIDAZINONE COMPOUND AND HERBICIDE” (NISSAN CHEMICAL CORPORATION, priority 2019, published 2023):
# Legend:
# [1] = system: Chinese sprangletop; assay: Test Example 3: herbicidal effect by foliage application, Wagner pot (Table 18, symbol D); assay type: in vivo, chinese sprangletop (Leptochloa chinensis); details: 320 g/ha
# In short: (§1)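 Plants were sown in alluvial soil held under 0.1–0.5 cm standing water and grown 14 days in a greenhouse at 25–30 °C. An emulsifiable formulation, water-diluted to the set dose, was then sprayed onto the foliage, and effects were scored three weeks later using previously defined criteria.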
# [2] = system: barnyard grass; assay: Test Example 5: herbicidal effect by foliage application, plastic box (Table 20, symbol H); assay type: in vivo, barnyard grass (Echinochloa crus-galli); details: foliage application, AAH 320 g/ha, three weeks after application
# In short: (§2)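 Foliar spray test: emulsion formulation diluted in water to a set application rate, sprayed onto 14-day-old plants raised in diluvial soil at 25° C to 30° C under glass. Both herbicidal effect and crop effect rated visually three weeks later.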
# [3] = system: persian speedwell; assay: Test Example 5: herbicidal effect by foliage application, plastic box (Table 20, symbol R); assay type: in vivo, Persian speedwell (Veronica persica); details: foliage application, AAH 320 g/ha, three weeks after application
# In short: as §2
# [4] = system: green foxtail; assay: Test Example 5: herbicidal effect by foliage application, plastic box (Table 20, symbol G); assay type: in vivo, green foxtail (Setaria viridis); details: foliage application, AAH 320 g/ha, three weeks after application
# In short: as §2
# [5] = system: blackgrass; assay: Test Example 4: herbicidal effect by soil treatment (Table 19, symbol J); assay type: in vivo, blackgrass (Alopecurus myosuroides); details: AAH 320 g/ha
# In short: (§3)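 Herbicidal effect was rated 3 weeks after treatment, using the scoring criteria of an earlier test. The compound, formulated as an emulsion and diluted in water to a set herbicide amount, had been sprayed uniformly on soil over freshly sown seeds. Growth took place in a greenhouse at 25° C. to 30° C.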
# [6] = system: southern crabgrass; assay: Test Example 4: herbicidal effect by soil treatment (Table 19, symbol F); assay type: in vivo, southern crabgrass (Digitaria ciliaris); details: AAH 320 g/ha
# In short: as §3
# [7] = system: southern crabgrass; assay: Test Example 5: herbicidal effect by foliage application, plastic box (Table 20, symbol F); assay type: in vivo, southern crabgrass (Digitaria ciliaris); details: foliage application, AAH 320 g/ha, three weeks after application
# In short: as §2
# [8] = system: windgrass; assay: Test Example 5: herbicidal effect by foliage application, plastic box (Table 20, symbol L); assay type: in vivo, windgrass (Apera spica-venti); details: foliage application, AAH 320 g/ha, three weeks after application
# In short: as §2
# [9] = system: green foxtail; assay: Test Example 4: herbicidal effect by soil treatment (Table 19, symbol G); assay type: in vivo, green foxtail (Setaria viridis); details: AAH 320 g/ha
# In short: as §3
# [10] = system: redroot pigweed; assay: Test Example 5: herbicidal effect by foliage application, plastic box (Table 20, symbol N); assay type: in vivo, redroot pigweed (Amaranthus retroflexus); details: foliage application, AAH 320 g/ha, three weeks after application
# In short: as §2
# [11] = system: windgrass; assay: Test Example 4: herbicidal effect by soil treatment (Table 19, symbol L); assay type: in vivo, windgrass (Apera spica-venti); details: AAH 320 g/ha
# In short: as §3
# [12] = system: velvetleaf; assay: Test Example 4: herbicidal effect by soil treatment (Table 19, symbol M); assay type: in vivo, velvetleaf (Abutilon theophrasti); details: AAH 320 g/ha
# In short: as §3
# [13] = system: Italian ryegrass; assay: Test Example 4: herbicidal effect by soil treatment (Table 19, symbol K); assay type: in vivo, Italian ryegrass (Lolium multiflorum); details: AAH 320 g/ha
# In short: as §3
# [14] = system: barnyard grass; assay: Test Example 4: herbicidal effect by soil treatment (Table 19, symbol H); assay type: in vivo, barnyard grass (Echinochloa crus-galli); details: AAH 320 g/ha
# In short: as §3
# [15] = system: redroot pigweed; assay: Test Example 4: herbicidal effect by soil treatment (Table 19, symbol N); assay type: in vivo, redroot pigweed (Amaranthus retroflexus); details: AAH 320 g/ha
# In short: as §3
# [16] = system: chickweed; assay: Test Example 4: herbicidal effect by soil treatment (Table 19, symbol P); assay type: in vivo, common chickweed (Stellaria media); details: AAH 320 g/ha
# In short: as §3
# [17] = system: chickweed; assay: Test Example 5: herbicidal effect by foliage application, plastic box (Table 20, symbol P); assay type: in vivo, common chickweed (Stellaria media); details: foliage application, AAH 320 g/ha, three weeks after application
# In short: as §2
# [18] = system: blackgrass; assay: Test Example 5: herbicidal effect by foliage application, plastic box (Table 20, symbol J); assay type: in vivo, blackgrass (Alopecurus myosuroides); details: foliage application, AAH 320 g/ha, three weeks after application
# In short: as §2
# [19] = system: false cleavers; assay: Test Example 4: herbicidal effect by soil treatment (Table 19, symbol Q); assay type: in vivo, false cleavers (Galium spurium); details: AAH 320 g/ha
# In short: as §3
# [20] = system: wild oat; assay: Test Example 5: herbicidal effect by foliage application, plastic box (Table 20, symbol I); assay type: in vivo, wild oat (Avena fatua); details: foliage application, AAH 320 g/ha, three weeks after application
# In short: as §2
# [21] = system: barnyard grass; assay: Test Example 3: herbicidal effect by foliage application, Wagner pot (Table 18, symbol H); assay type: in vivo, barnyard grass (Echinochloa crus-galli); details: 320 g/ha
# In short: as §1
# [22] = system: velvetleaf; assay: Test Example 5: herbicidal effect by foliage application, plastic box (Table 20, symbol M); assay type: in vivo, velvetleaf (Abutilon theophrasti); details: foliage application, AAH 320 g/ha, three weeks after application
# In short: as §2
# [23] = system: lambsquarters; assay: Test Example 5: herbicidal effect by foliage application, plastic box (Table 20, symbol O); assay type: in vivo, lambsquarters (Chenopodium album); details: foliage application, AAH 320 g/ha, three weeks after application
# In short: as §2
# [24] = system: rice flat sedge; assay: Test Example 3: herbicidal effect by foliage application, Wagner pot (Table 18, symbol E); assay type: in vivo, rice flat sedge (Cyperus iria); details: 320 g/ha
# In short: as §1
# [25] = system: Italian ryegrass; assay: Test Example 5: herbicidal effect by foliage application, plastic box (Table 20, symbol K); assay type: in vivo, Italian ryegrass (Lolium multiflorum); details: foliage application, AAH 320 g/ha, three weeks after application
# In short: as §2
# [26] = system: wild oat; assay: Test Example 4: herbicidal effect by soil treatment (Table 19, symbol I); assay type: in vivo, wild oat (Avena fatua); details: AAH 320 g/ha
# In short: as §3
# [27] = system: persian speedwell; assay: Test Example 4: herbicidal effect by soil treatment (Table 19, symbol R); assay type: in vivo, Persian speedwell (Veronica persica); details: AAH 320 g/ha
# In short: as §3
# [28] = system: lambsquarters; assay: Test Example 4: herbicidal effect by soil treatment (Table 19, symbol O); assay type: in vivo, lambsquarters (Chenopodium album); details: AAH 320 g/ha
# In short: as §3
smiles,measurement,setting,value
CCCC(=O)Oc1c(OC)nn(C)c(=O)c1-c1c(-c2ccc([N+](=O)[O-])cc2)sc2ccccc12 [1-169],"herbicidal effect on D (Chinese sprangletop), rating 0-5",[1],0 (Herbicidal rate of 5% or less (almost no effect))
same,"H: barnyard grass, herbicidal effect",[2],0 (Herbicidal rate of 5% or less (almost no effect))
same,"R: persian speedwell, herbicidal effect",[3],4 (Herbicidal rate of 70% or more and less than 90%)
same,"G: green foxtail, herbicidal effect",[4],0 (Herbicidal rate of 5% or less (almost no effect))
same,"J: blackgrass, herbicidal effect rating",[5],0 (Herbicidal rate of 5% or less (almost no effect))
same,"F: southern crabgrass, herbicidal effect rating",[6],0 (Herbicidal rate of 5% or less (almost no effect))
same,"F: southern crabgrass, herbicidal effect",[7],0 (Herbicidal rate of 5% or less (almost no effect))
same,"L: windgrass, herbicidal effect",[8],0 (Herbicidal rate of 5% or less (almost no effect))
same,"G: green foxtail, herbicidal effect rating",[9],0 (Herbicidal rate of 5% or less (almost no effect))
same,"N: redroot pigweed, herbicidal effect",[10],4 (Herbicidal rate of 70% or more and less than 90%)
same,"L: windgrass, herbicidal effect rating",[11],0 (Herbicidal rate of 5% or less (almost no effect))
same,"M: velvetleaf, herbicidal effect rating",[12],0 (Herbicidal rate of 5% or less (almost no effect))
same,"K: Italian ryegrass, herbicidal effect rating",[13],0 (Herbicidal rate of 5% or less (almost no effect))
same,"H: barnyard grass, herbicidal effect rating",[14],0 (Herbicidal rate of 5% or less (almost no effect))
same,"N: redroot pigweed, herbicidal effect rating",[15],0 (Herbicidal rate of 5% or less (almost no effect))
same,"P: chickweed, herbicidal effect rating",[16],1 (Herbicidal rate of 5% or more and less than 20%)
same,"P: chickweed, herbicidal effect",[17],4 (Herbicidal rate of 70% or more and less than 90%)
same,"J: blackgrass, herbicidal effect",[18],0 (Herbicidal rate of 5% or less (almost no effect))
same,"Q: false cleavers, herbicidal effect rating",[19],0 (Herbicidal rate of 5% or less (almost no effect))
same,"I: wild oat, herbicidal effect",[20],0 (Herbicidal rate of 5% or less (almost no effect))
same,"herbicidal effect on H (barnyard grass), rating 0-5",[21],1 (Herbicidal rate of 5% or more and less than 20%)
same,"M: velvetleaf, herbicidal effect",[22],0 (Herbicidal rate of 5% or less (almost no effect))
same,"O: lambsquarters, herbicidal effect",[23],4 (Herbicidal rate of 70% or more and less than 90%)
same,"herbicidal effect on E (rice flat sedge), rating 0-5",[24],2 (Herbicidal rate of 20% or more and less than 40%)
same,"K: Italian ryegrass, herbicidal effect",[25],0 (Herbicidal rate of 5% or less (almost no effect))
same,"I: wild oat, herbicidal effect rating",[26],0 (Herbicidal rate of 5% or less (almost no effect))
same,"R: persian speedwell, herbicidal effect rating",[27],3 (Herbicidal rate of 40% or more and less than 70%)
same,"O: lambsquarters, herbicidal effect rating",[28],0 (Herbicidal rate of 5% or less (almost no effect))
